# In patent US5723468A, “6-membered ring fused imidazoles as muscarinic agents” (priority 1996, dated 1998):
# How the values were obtained:
# [1] = system: mild to moderate Alzheimer's Disease; details: cited from earlier work; for improvement in memory: patients with mild to moderate Alzheimer's Disease
# [2] = target: T1, M1 acetylcholine receptors (ml receptors in CHO cells) (Homo sapiens, UniProt P11229); test: stimulation of phosphoinositide (PI) hydrolysis in transfected CHO cells; format: cell-based; details: 1 h, read-out: % PI Hydrolysis ml receptors in CHO cells 30 × Ki (μM), carb = 100%
# T1 sequence (P11229 1-460): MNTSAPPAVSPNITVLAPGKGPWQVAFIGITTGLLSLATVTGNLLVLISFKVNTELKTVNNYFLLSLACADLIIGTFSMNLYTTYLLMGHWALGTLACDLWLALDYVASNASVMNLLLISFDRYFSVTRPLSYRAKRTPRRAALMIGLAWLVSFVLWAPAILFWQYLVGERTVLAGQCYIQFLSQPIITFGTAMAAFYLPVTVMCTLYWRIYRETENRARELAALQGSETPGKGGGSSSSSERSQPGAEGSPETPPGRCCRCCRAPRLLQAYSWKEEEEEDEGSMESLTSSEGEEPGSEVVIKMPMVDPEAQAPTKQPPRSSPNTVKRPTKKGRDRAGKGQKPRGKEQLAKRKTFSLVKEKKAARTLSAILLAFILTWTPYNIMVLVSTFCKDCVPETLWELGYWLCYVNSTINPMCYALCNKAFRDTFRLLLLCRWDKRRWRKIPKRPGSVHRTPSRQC
SMILES,improvement in memory [1],Emax [2] [%],adverse side effects ([1]; especially at the higher doses where it is most effective)
COC(=O)C1=CCCN(C)C1 [arecoline],demonstrated memory improvement in patients with mild to moderate Alzheimer's Disease,–,–
"Cn1cnc2c(O[C@@H]3CN4CC[C@H]3C4)nccc21 (single isomer, unassigned) [Example 3, (-)-endo-4-(1-Aza-bicyclo[2.2.1]hept-3-yloxy)-1methyl-1H-imidazol[4,5-c]pyridine]",–,20.6,–
Nc1c2c(nc3ccccc13)CCCC2 [tacrine],improvement in memory can be shown in patients with mild to moderate Alzheimer's Disease,–,adverse side effects especially at the higher doses
"Cn1cnc2c(O[C@@H]3CN4CC[C@H]3C4)nccc21 (relative stereo) [Example 1, endo-4-(1-Aza-bicyclo[2.2.1]hept-3-yloxy)-1-methyl-1H-imidazol[4,5-c]pyridine]",–,25,–
"c1ccc(Cn2cnc3c(OC4CN5CCC4CC5)nccc32)cc1 (single isomer, unassigned; (-)) [Example 7, (-)-3-(1-Benzyl-1H-imidazol[4,5-c]pyridin-4-yloxy)-1-aza-bicyclo[2,2,2]octane]",–,18.4,–
"c1ccc(Cn2cnc3c(OC4CN5CCC4CC5)nccc32)cc1 (stereo not shown) [Example 5, 3-(1-Benzyl-1H-imidazo[4,5-c]pyridin-4-yloxy)-1-aza-bicyclo[2,2,2]octane]",–,6.8,–
